# Test results: PubChem BioAssay (NCI)
#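 In this assay, cells in 96-well plates receive the compound at five concentrations for 48 hours. Endpoints are linearly interpolated between the surrounding concentrations. Definition used: TGI = concentration required for complete inhibition of growth.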
# Experiments:
# Assay in all cases: NCI-60 cell line screen, 48 h
# BT-549 breast = tested on: BT-549 breast
# MOLT-4 leukemia = tested on: MOLT-4 leukemia
# HOP-92 NSCLC = tested on: HOP-92 NSCLC
# EKVX NSCLC = tested on: EKVX NSCLC
# SK-OV-3 ovarian = tested on: SK-OV-3 ovarian
# M14 melanoma = tested on: M14 melanoma
# 786-0 renal = tested on: 786-0 renal
# OVCAR-3 ovarian = tested on: OVCAR-3 ovarian
# SF-295 CNS = tested on: SF-295 CNS
# LOX IMVI melanoma = tested on: LOX IMVI melanoma
# NCI-H226 lung = tested on: NCI-H226 lung
# HT29 colon = tested on: HT29 colon
# MDA-MB-231 breast = tested on: MDA-MB-231 breast
# IGROV1 ovarian = tested on: IGROV1 ovarian
# HCC-2998 colon = tested on: HCC-2998 colon
# PC-3 prostate = tested on: PC-3 prostate
# NCI-H460 lung = tested on: NCI-H460 lung
# A498 renal = tested on: A498 renal
# SNB-75 CNS = tested on: SNB-75 CNS
# SF-268 CNS = tested on: SF-268 CNS
# SK-MEL-28 melanoma = tested on: SK-MEL-28 melanoma
# CAKI-1 renal = tested on: CAKI-1 renal
# MALME-3M melanoma = tested on: MALME-3M melanoma
# OVCAR-8 ovarian = tested on: OVCAR-8 ovarian
# COLO 205 colon = tested on: COLO 205 colon
# HCT-15 colon = tested on: HCT-15 colon
# MCF7 breast = tested on: MCF7 breast
# DU-145 prostate = tested on: DU-145 prostate
# NCI-H522 lung = tested on: NCI-H522 lung
# U251 CNS = tested on: U251 CNS
# HCT-116 colon = tested on: HCT-116 colon
# KM12 colon = tested on: KM12 colon
# SK-MEL-5 melanoma = tested on: SK-MEL-5 melanoma
# RPMI-8226 leukemia = tested on: RPMI-8226 leukemia
# SK-MEL-2 melanoma = tested on: SK-MEL-2 melanoma
# K-562 leukemia = tested on: K-562 leukemia
# HL-60(TB) leukemia = tested on: HL-60(TB) leukemia
# TK-10 renal = tested on: TK-10 renal
# NCI-H23 lung = tested on: NCI-H23 lung
# A549 NSCLC = tested on: A549 NSCLC
# ACHN renal = tested on: ACHN renal
# OVCAR-5 ovarian = tested on: OVCAR-5 ovarian
# OVCAR-4 ovarian = tested on: OVCAR-4 ovarian
# CCRF-CEM leukemia = tested on: CCRF-CEM leukemia
# SF-539 CNS = tested on: SF-539 CNS
# NCI/ADR-RES ovarian = tested on: NCI/ADR-RES ovarian
# UO-31 renal = tested on: UO-31 renal
# HS 578T breast = tested on: HS 578T breast
# SN12C renal = tested on: SN12C renal
# SNB-19 CNS = tested on: SNB-19 CNS
# MDA-MB-435 = tested on: MDA-MB-435
# T-47D breast = tested on: T-47D breast
# RXF 393 renal = tested on: RXF 393 renal
# SW-620 colon = tested on: SW-620 colon
# MDA-N = tested on: MDA-N
# HOP-62 NSCLC = tested on: HOP-62 NSCLC
# UACC-62 melanoma = tested on: UACC-62 melanoma
# SR leukemia = tested on: SR leukemia
# UACC-257 melanoma = tested on: UACC-257 melanoma
# HOP-18 NSCLC = tested on: HOP-18 NSCLC
# KM20L2 colon = tested on: KM20L2 colon
# LXFL 529 NSCLC = tested on: LXFL 529 NSCLC
# DMS 114 small cell lung = tested on: DMS 114 small cell lung
smiles,measurement,setting,value
O=C1Sc2cc3ccccc3cc2C(=O)Sc2cc3ccccc3cc21,TGI,BT-549 breast,> 100 µM
same,TGI,MOLT-4 leukemia,76.8 µM
same,TGI,HOP-92 NSCLC,> 87.6 µM
same,TGI,EKVX NSCLC,> 100 µM
same,TGI,SK-OV-3 ovarian,> 100 µM
same,TGI,M14 melanoma,> 63.9 µM
same,TGI,786-0 renal,59 µM
same,TGI,OVCAR-3 ovarian,> 63.5 µM
same,TGI,SF-295 CNS,> 100 µM
same,TGI,LOX IMVI melanoma,48.1 µM
same,TGI,NCI-H226 lung,> 100 µM
same,TGI,HT29 colon,> 90.5 µM
same,TGI,MDA-MB-231 breast,> 100 µM
same,TGI,IGROV1 ovarian,> 100 µM
same,TGI,HCC-2998 colon,58.7 µM
same,TGI,PC-3 prostate,> 100 µM
same,TGI,NCI-H460 lung,> 100 µM
same,TGI,A498 renal,> 100 µM
same,TGI,SNB-75 CNS,> 100 µM
same,TGI,SF-268 CNS,> 83.7 µM
same,TGI,SK-MEL-28 melanoma,> 85.4 µM
same,TGI,CAKI-1 renal,> 90.1 µM
same,TGI,MALME-3M melanoma,> 93.5 µM
same,TGI,OVCAR-8 ovarian,> 89.2 µM
same,TGI,COLO 205 colon,> 100 µM
same,TGI,HCT-15 colon,90.7 µM
same,TGI,MCF7 breast,> 100 µM
same,TGI,DU-145 prostate,> 100 µM
same,TGI,NCI-H522 lung,41.5 µM
same,TGI,U251 CNS,> 100 µM
same,TGI,HCT-116 colon,38.5 µM
same,TGI,KM12 colon,> 100 µM
same,TGI,SK-MEL-5 melanoma,> 100 µM
same,TGI,RPMI-8226 leukemia,> 24.6 µM
same,TGI,SK-MEL-2 melanoma,> 66.5 µM
same,TGI,K-562 leukemia,> 100 µM
same,TGI,HL-60(TB) leukemia,27.1 µM
same,TGI,TK-10 renal,> 100 µM
same,TGI,NCI-H23 lung,> 100 µM
same,TGI,A549 NSCLC,> 100 µM
same,TGI,ACHN renal,> 63.6 µM
same,TGI,OVCAR-5 ovarian,> 100 µM
same,TGI,OVCAR-4 ovarian,69.5 µM
same,TGI,CCRF-CEM leukemia,12.5 µM
same,TGI,SF-539 CNS,> 100 µM
same,TGI,NCI/ADR-RES ovarian,> 92.3 µM
same,TGI,UO-31 renal,37.1 µM
same,TGI,HS 578T breast,> 100 µM
same,TGI,SN12C renal,75.7 µM
same,TGI,SNB-19 CNS,> 100 µM
same,TGI,MDA-MB-435,> 100 µM
same,TGI,T-47D breast,> 75 µM
same,TGI,RXF 393 renal,35.7 µM
same,TGI,SW-620 colon,> 100 µM
same,TGI,MDA-N,> 100 µM
same,TGI,HOP-62 NSCLC,> 85.2 µM
same,TGI,UACC-62 melanoma,67.2 µM
same,TGI,SR leukemia,9.27 µM
same,TGI,UACC-257 melanoma,> 78.7 µM
Cc1c(/C=N/NS(=O)(=O)c2ccccc2)no[n+]1[O-],TGI,MOLT-4 leukemia,> 100 µM
same,TGI,HOP-92 NSCLC,> 100 µM
same,TGI,EKVX NSCLC,> 100 µM
same,TGI,SK-OV-3 ovarian,> 100 µM
same,TGI,M14 melanoma,> 100 µM
same,TGI,786-0 renal,> 100 µM
same,TGI,OVCAR-3 ovarian,> 100 µM
same,TGI,SF-295 CNS,> 100 µM
same,TGI,HT29 colon,> 100 µM
same,TGI,IGROV1 ovarian,> 100 µM
same,TGI,A498 renal,> 100 µM
same,TGI,SF-268 CNS,> 100 µM
same,TGI,SK-MEL-28 melanoma,> 100 µM
same,TGI,CAKI-1 renal,> 100 µM
same,TGI,HOP-18 NSCLC,> 100 µM
same,TGI,MALME-3M melanoma,> 100 µM
same,TGI,OVCAR-8 ovarian,> 100 µM
same,TGI,KM20L2 colon,> 100 µM
same,TGI,COLO 205 colon,> 100 µM
same,TGI,HCT-15 colon,> 100 µM
same,TGI,NCI-H522 lung,> 100 µM
same,TGI,U251 CNS,> 100 µM
same,TGI,HCT-116 colon,> 100 µM
same,TGI,KM12 colon,> 100 µM
same,TGI,SK-MEL-5 melanoma,> 100 µM
same,TGI,RPMI-8226 leukemia,> 100 µM
same,TGI,SK-MEL-2 melanoma,> 100 µM
same,TGI,K-562 leukemia,> 100 µM
same,TGI,HL-60(TB) leukemia,> 100 µM
same,TGI,TK-10 renal,> 100 µM
same,TGI,NCI-H23 lung,> 100 µM
same,TGI,A549 NSCLC,> 100 µM
same,TGI,OVCAR-5 ovarian,> 100 µM
same,TGI,OVCAR-4 ovarian,> 100 µM
same,TGI,CCRF-CEM leukemia,> 100 µM
same,TGI,SF-539 CNS,> 100 µM
same,TGI,UO-31 renal,49.6 µM
same,TGI,LXFL 529 NSCLC,> 100 µM
same,TGI,SN12C renal,> 100 µM
same,TGI,SNB-19 CNS,> 100 µM
same,TGI,DMS 114 small cell lung,> 100 µM
same,TGI,RXF 393 renal,> 100 µM
same,TGI,SW-620 colon,> 100 µM
same,TGI,UACC-62 melanoma,> 100 µM
same,TGI,SR leukemia,> 100 µM
